What was measured:
[1] = molecular target: T1, NK2 receptor (Bos taurus, UniProt P05363); assay: Antagonism of NK2 receptor mediated (NKA-induced) phosphatidylinositol turnover in SKLKB82#3 cells; assay type: cell-based; details: Schild analysis, NKA in SKLKB82#3 cells; mean (95% confidence limits), 2-3 experiments
T1 construct: expressed in transfected cells; host or cells: SKLKB82#3 cells
T1 sequence (P05363 1-384): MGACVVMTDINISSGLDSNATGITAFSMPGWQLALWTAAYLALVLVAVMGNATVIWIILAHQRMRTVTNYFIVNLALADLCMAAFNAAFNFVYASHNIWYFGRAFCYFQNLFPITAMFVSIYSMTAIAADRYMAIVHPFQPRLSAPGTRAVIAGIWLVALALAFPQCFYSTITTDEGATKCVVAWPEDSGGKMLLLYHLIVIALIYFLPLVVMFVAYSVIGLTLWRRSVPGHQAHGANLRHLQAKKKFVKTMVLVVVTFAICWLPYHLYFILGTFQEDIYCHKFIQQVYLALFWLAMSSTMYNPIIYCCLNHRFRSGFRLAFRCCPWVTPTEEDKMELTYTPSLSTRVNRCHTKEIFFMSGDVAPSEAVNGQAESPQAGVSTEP
Method: (§1) Tachykinin-mediated inositol phosphate accumulation was measured in UCll or SKLKB82#3 cells in the presence and absence of NK1 or NK2 receptor antagonists, respectively. Tissues were incubated in Krebs-Henseleit buffer at 37°C with 95% O2-5% CO2 gassing. Tissues were then incubated with fresh buffer containing 100 µCi of myo-[2-^3H(N)] inositol at 37°C for 60 min with gentle gassing. After washing twice at room temperature in 5 ml buffer containing 10 mM LiCl, tissues were incubated for 30 min at room temperature with a buffer change at 15 min. Buffer was removed and Krebs-Henseleit buffer (containing 40 µg/ml bacitracin, 4 µg/ml each of leupeptin and chymostatin, 0.1% bovine serum albumin and 10 mM each of thiorphan and LiCl) added. After 15 min, SP was added to UCll cells or NKA to SKLKB82#3 cells at various concentrations to start the reaction. After incubation for 60 min at room temperature the reaction was terminated by addition of 930 µl chloroform: methanol (1:2 by volume) to each tube, followed by 310 µl chloroform and 310 µl doubly distilled water. Samples were vortexed, centrifuged, and 0.9 ml of the aqueous (top) phase removed and added to 2 ml ddH2O. The mixture was vortexed and loaded onto a 50% Bio-Rad AG 1-X8 (formate form, 100-200 mesh) exchange column (Bio-Rad Laboratories, Hercules, CA). The columns were washed, in order, with: 1) 10 ml doubly distilled water, 2) 5 ml of 5 mM disodium tetraborate/60 mM sodium formate, and 3) 5 ml of 1 M ammonium formate/0.1 M formic acid. The third elution was collected and 1 ml counted in 7 ml scintillation fluid. A 50 µl aliquot of the organic (bottom) phase was removed, dried in a scintillation vial and counted in 7 ml scintillation fluid.
(§2) The ratio of DPM in the aqueous phase aliquot (total inositol phosphates) to the DPM in the 50 µl organic phase aliquot (total [^3H]inositol incorporated) was calculated for each sample. Data are expressed as a percent of agonist-induced accumulation of [^3H]-inositol phosphates over basal levels. The ratios in the presence of test compound and/or standards were compared to the ratios for control samples (i.e. no stimulating agonist). Dose-response graphs were constructed and the abilities of the test compounds to inhibit tachykinin-induced phosphatidylinositol turnover determined with the aid of a computer program. […] Data is expressed as percent stimulation of total inositol phosphate accumulation over basal levels and normalized to the maximum response produced by SP. […] Schild analysis is performed using dose response curves (such as those presented in Figures 1a and 1b) to obtain a value indicative of the strength of a competitive antagonist and is expressed as the pA2, which is the negative logarithm of the molar concentration of antagonist which reduces the effect of a dose of agonist to one-half of that expected at the dose of agonist. […]
(§3) Values are mean (95% confidence limits) derived from Schild analysis of 2-3 experiments per compound per receptor.

[2] = molecular target: T2, NK1 receptor (Homo sapiens, UniProt P25103); assay: Antagonism of NK1 receptor mediated (SP-induced) phosphatidylinositol turnover in UC11 cells; assay type: cell-based; details: Schild analysis, SP in UC11 cells; mean (95% confidence limits), 2-3 experiments
T2 construct: endogenous in cells; host or cells: UC11 cells
T2 sequence (P25103 whole entry): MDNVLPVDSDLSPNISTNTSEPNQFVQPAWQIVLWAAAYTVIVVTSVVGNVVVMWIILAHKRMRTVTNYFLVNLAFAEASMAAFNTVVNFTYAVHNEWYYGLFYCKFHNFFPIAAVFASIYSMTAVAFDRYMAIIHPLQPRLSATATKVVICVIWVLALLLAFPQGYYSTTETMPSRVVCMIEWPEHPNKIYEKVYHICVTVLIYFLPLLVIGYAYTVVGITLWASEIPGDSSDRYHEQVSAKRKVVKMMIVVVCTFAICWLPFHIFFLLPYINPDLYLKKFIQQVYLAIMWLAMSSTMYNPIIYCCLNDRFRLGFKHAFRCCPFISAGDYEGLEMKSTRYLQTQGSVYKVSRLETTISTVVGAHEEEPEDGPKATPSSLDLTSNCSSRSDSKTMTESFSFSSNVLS
Method: as §1, §2, §3

COc1cc(C(=O)N2CCC(CCN3CCC(C(N)=O)(c4ccccc4)CC3)(c3ccc(Cl)c(Cl)c3)C2)cc(OC)c1OC (single isomer, unassigned; (+)) [Example 20, (+)-1-[2-[3-(3,4-dichloro-phenyl)-1-(3,4,5-trimethoxy-benzoyl)-pyrrolidin-3-yl]-ethyl]-4-phenyl-piperidine-4-carboxylic acid amide]
NK-2 RECEPTOR -SLOPE [1]: 1.00 (0.63-1.37) | NK-1 RECEPTOR -SLOPE [2]: 1.03 (0.78-1.28)

From patent publication EP0696280B1, “SUBSTITUTED PYRROLIDIN-3-YL-ALKYL-PIPERIDINES USEFUL AS TACHYKININ ANTAGONISTS” (MERRELL PHARMACEUTICALS INC., priority 1993, dated 1994)
